The results in this text go back to patent EP1501514B1, “PROTEIN KINASE MODULATORS AND METHODS OF USE” (Exelixis, Inc., priority 2002, dated 2003).

This assay has as its target T1, Chk1 (Homo sapiens, UniProt O14757).
T1 construct: purchased Upstate Biotechnology
T1 sequence (O14757 1-476): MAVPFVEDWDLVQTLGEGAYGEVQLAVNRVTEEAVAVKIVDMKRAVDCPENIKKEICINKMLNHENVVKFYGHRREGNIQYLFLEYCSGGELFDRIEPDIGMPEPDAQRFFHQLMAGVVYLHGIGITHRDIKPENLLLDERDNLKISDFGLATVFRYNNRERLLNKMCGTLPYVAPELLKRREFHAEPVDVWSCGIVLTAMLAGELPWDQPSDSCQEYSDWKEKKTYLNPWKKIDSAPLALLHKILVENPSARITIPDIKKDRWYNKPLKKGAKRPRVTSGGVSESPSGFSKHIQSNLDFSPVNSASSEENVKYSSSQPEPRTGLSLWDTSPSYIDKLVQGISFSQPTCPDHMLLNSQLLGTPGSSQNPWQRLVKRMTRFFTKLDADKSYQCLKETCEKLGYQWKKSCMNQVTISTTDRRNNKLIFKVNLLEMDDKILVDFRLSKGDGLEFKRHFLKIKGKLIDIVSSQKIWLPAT
Briefly: Chk1 assay: incorporation of γ-33P ATP into immobilized myelin basic protein. It counts as biochemical. As to the method:
Chk1 and Chk2 assays were performed by measuring incorporation of γ-^33P ATP into immobilized myelin basic protein (MBP). High binding white 384 well plates (Greiner) were coated with MBP (Sigma #M-1891) by incubation of 60ul/well of 20µg/ml MBP in Tris-buffered saline (TBS; 50mM Tris pH 8.0, 138mM NaCl, 2.7mM KCl) for 24 hours at 4° C. Plates were washed 3X with 100µl TBS. Kinase reactions were carried out in a total volume of 34µl in kinase buffer (5mM Hepes pH 7.6, 15mM NaCl, 0.01% bovine gamma globulin (Sigma #I-5506), 10mM MgCl2, 1mM DTT, 0.02% TritonX-100). Compound dilutions were performed in DMSO and added to assay wells to a final DMSO concentration of 1%. Each data point was measured in duplicate, and at least two duplicate assays were performed for each individual compound determination. Chkl and Chk2 enzymes (Upstate Biotechnology) were added to final concentrations of 10nM (Chkl) or 20nM (Chk2). A mixture of unlabeled ATP and γ-^33P ATP was added to start the reaction (2x10^6 cpm of γ-^33P ATP per well (3000Ci/mmole) and either 10µM or 30µM unlabeled ATP (for Chkl and Chk2 assays respectively). The reaction was carried out for 1 hour at room temperature with shaking. Plates were washed 7x with TBS, followed by the addition of 50µl/well scintillation fluid (Wallac). Plates were read using a Wallac Trilux counter. This is only one format of such assays, various other formats are possible, as known to those skilled in the art.
The above assay procedure can be used to determine the IC50 for inhibition and/or the inhibition constant Ki. The IC50 is defined as the concentration of compound required to reduce the enzyme activity by 50% under the conditions of the assay. […] The Ki for a compound may be determined from the IC50 based on three assumptions. First, only one compound molecule binds to the enzyme and there is no cooperativity. […] Third, the enzymatic rate of the enzyme-inhibitor complex is zero. The rate (i.e., compound concentration) data are fitted to the equation: V = Vmax E0 [I-((E0+I0+Kd)-sqrt(((E0+I0+Kd))^2 -4E0 I0))/(2E0)] [formula]

The mark [1] stands for this setting: Table 11, inhibition given as IC50 class symbol.

Read-outs that look alike come from different tables or passages of the source.

Turning to `CCOc1cccc(-c2cnc(N)c(C(=O)NC)n2)c1` [compound 50, 3-amino-6-[3-(ethyloxy)phenyl]-N-methylpyrazine-2-carboxamide], the IC50 – broadly, the concentration that inhibits the measured activity by half – (Table 11, Chk1 only) was in the range of 1 to 10 µM.
The same measure, in the same setting: with `CCOc1ccc(-c2cnc(N)c(C(=O)NC)n2)cc1` [compound 52, 3-amino-6-[4-(ethyloxy)phenyl]-N-methylpyrazine-2-carboxamide] the figure was 1 to 10 µM; with `CNC(=O)c1nc(-c2cccc(C)c2)cnc1N` [compound 53, 3-amino-N-methyl-6-(3-methylphenyl)pyrazine-2-carboxamide], 0.05 to 1 µM.
`CNC(=O)c1nc(-c2ccc(OC)cc2)cnc1N` [compound 54, 3-amino-N-methyl-6-[4-(methyloxy)phenyl]pyrazine-2-carboxamide] gave an IC50 (Table 11, Chk1 only) of 1 to 10 µM.
As to `CNC(=O)c1nc(-c2cccc(-c3ccccc3)c2)cnc1N` [compound 55, 3-amino-6-biphenyl-3-yl-N-methylpyrazine-2-carboxamide], for the setting “Table 11, Chk1 only”, the IC50 is 0.05 to 1 µM.
`CNC(=O)c1nc(-c2cccc(NC(C)=O)c2)cnc1N` [compound 56, 6-[3-(acetylamino)phenyl]-3-amino-N-methylpyrazine-2-carboxamide] showed an IC50 (Table 11, Chk1 only) of 0.05 to 1 µM.
Compound `CNC(=O)c1nc(-c2ccc(F)c(C)c2)cnc1N` [compound 61, 3-amino-6-(4-fluoro-3-methylphenyl)-N-methylpyrazine-2-carboxamide] showed an IC50 (Table 11, Chk1 only) of 0.05 to 1 µM.
Turning to `CNC(=O)c1nc(-c2cccnc2)cnc1N` [compound 62, 3-amino-N-methyl-6-pyridin-3-ylpyrazine-2-carboxamide], the IC50 (Table 11, Chk1 only) was 1 to 10 µM.
As for `CNC(=O)c1cccc(-c2cnc(N)c(C(=O)NC)n2)c1` [compound 64, 3-amino-N-methyl-6-{3-[(methylamino)carbonyl]phenyl}pyrazine-2-carboxamide], the IC50 (Table 11, Chk1 only) is 1 to 10 µM.
The same measure, in the same setting: with `CNC(=O)c1nc(-c2cccc(C(C)=O)c2)cnc1N` [compound 65, 6-(3-acetylphenyl)-3-amino-N-methylpyrazine-2-carboxamide] the figure was 1 to 10 µM; with `CNC(=O)c1nc(-c2noc(-c3cccnc3)n2)cnc1N` [compound 66, 3-amino-N-methyl-6-(5-pyridin-3-yl-1,2,4-oxadiazol-3-yl)pyrazine-2-carboxamide], above 10 µM; with `CNC(=O)c1nc(-c2noc(C3CCCCC3)n2)cnc1N` [compound 68, 3-amino-6-(5-cyclohexyl-1,2,4-oxadiazol-3-yl)-N-methylpyrazine-2-carboxamide], above 10 µM.
On to `CNC(=O)c1nc(-c2noc(C)n2)cnc1N` [compound 71, 3-amino-N-methyl-6-(5-methyl-1,2,4-oxadiazol-3-yl)pyrazine-2-carboxamide], for which the IC50 (Table 11, Chk1 only) was 1 to 10 µM.
Still for that read-out and setting: with `CNC(=O)c1nc(-c2noc(-c3ccncc3)n2)cnc1N` [compound 73, 3-amino-N-methyl-6-(5-pyridin-4-yl-1,2,4-oxadiazol-3-yl)pyrazine-2-carboxamide] the figure was above 10 µM; with `Cc1cccc(-c2cnc(N)c(C(=O)NCCO)n2)c1` [compound 329, 3-amino-N-(2-hydroxyethyl)-6-(3-methylphenyl)pyrazine-2-carboxamide], 1 to 10 µM.
Still for that read-out and setting: with `CNC(=O)c1nc(-c2cccc(C(=O)NCc3ccc(C(C)(C)C)cc3)c2)cnc1N` [compound 353, 3-amino-6-{3-[({[4-(1,1-dimethylethyl)phenyl]methyl}amino)carbonyl]phenyl}-N-methylpyrazine-2-carboxamide] the figure was 0.05 to 1 µM.
`CC(C)(C)c1nnc(-c2nc(-c3cccc(CO)c3)cnc2N)[nH]1` [compound 569, (3-{5-amino-6-[5-(1,1-dimethylethyl)-4H-1,2,4-triazol-3-yl]pyrazin-2-yl}phenyl)methanol] registered an IC50 under setting [1] of 1 to 10 µM.
In turn, `C[C@@H](NC(=O)c1cccc(-c2cnc(N)c(C(=O)N[C@H]3CCNC3)n2)c1)c1ccccc1` [compound 716, 3-amino-6-[3-({[(1R)-1-phenylethyl]amino}carbonyl)phenyl]-N-[(3S)-pyrrolidin-3-yl]pyrazine-2-carboxamide] returned an IC50 under setting [1] of 1 to 10 µM.
In turn, `N=C(NNc1ccccc1)c1nc(-c2cccc(C(=O)N[C@H]3CCc4ccccc43)c2)cnc1N` [compound 720, 3-{5-amino-6-[imino(2-phenylhydrazino)methyl]pyrazin-2-yl}-N-[(1S)-2,3-dihydro-1H-inden-1-yl]benzamide] showed an IC50 under setting [1] above 10 µM.
Under setting [1], `CC(C)(C)OC(=O)N1CC[C@H](NC(=O)c2nc(-c3cccc(C(=O)NCc4ccc(Cl)cc4)c3)cnc2N)C1` [compound 756, 1,1-dimethylethyl (3S)-3-[({3-amino-6-[3-({[(4-chlorophenyl)methyl]amino}carbonyl)phenyl]pyrazin-2-yl}carbonyl)amino]pyrrolidine-1-carboxylate] returned an IC50 of 0.05 to 1 µM.
On the same count and under the same terms, with `Nc1ncc(-c2cccc(C(=O)NCc3cccnc3)c2)nc1C(=O)N[C@H]1CCNC1` [compound 762, 3-amino-6-(3-{[(pyridin-3-ylmethyl)amino]carbonyl}phenyl)-N-[(3S)-pyrrolidin-3-yl]pyrazine-2-carboxamide] the figure was 0.05 to 1 µM; with `Nc1ncc(-c2cccc(C(=O)N[C@H]3CCc4ccccc43)c2)nc1C(=O)N[C@H]1CCCNC1` [compound 764, 3-amino-6-(3-{[(1S)-2,3-dihydro-1H-inden-1-ylamino]carbonyl}phenyl)-N-[(3S)-piperidin-3-yl]pyrazine-2-carboxamide], below 0.05 µM.
The same measure, in the same setting: with `CC(C)(C)OC(=O)N1CC[C@H](CNC(=O)c2nc(-c3cccc(C(=O)N[C@H]4CCc5ccccc54)c3)cnc2N)C1` [compound 784, 1,1-dimethylethyl (3R)-3-[({[3-amino-6-(3-{[(1S)-2,3-dihydro-1H-inden-1-ylamino]carbonyl}phenyl)pyrazin-2-yl]carbonyl}amino)methyl]pyrrolidine-1-carboxylate] the figure was above 10 µM.
Regarding `Nc1ncc(-c2cccc(C(=O)NCc3ccc(-c4cccs4)cc3)c2)nc1C(=O)N[C@H]1CCCNC1` [compound 854, 3-amino-N-[(3S)-piperidin-3-yl]-6-{3-[({[4-(2-thienyl)phenyl]methyl}amino)carbonyl]phenyl}pyrazine-2-carboxamide], the IC50 was below 0.05 µM.
Turning to `Cc1ccc(C(=O)Nc2cccc(-c3cnc(N)c(C(=O)N[C@H]4CCCNC4)n3)c2)cn1` [compound 978, 3-amino-6-(3-{[(6-methylpyridin-3-yl)carbonyl]amino}phenyl)-N-[(3S)-piperidin-3-yl]pyrazine-2-carboxamide], the IC50 was below 0.05 µM.
On the same count and under the same terms, with `Nc1ncc(-c2cccc(C(=O)NCc3cc(C(F)(F)F)ccc3Cl)c2)nc1C(=O)N[C@H]1CCCNC1` [compound 994, 3-amino-6-{3-[({[2-chloro-5-(trifluoromethyl)phenyl]methyl}amino)carbonyl]phenyl}-N-[(3S)-piperidin-3-yl]pyrazine-2-carboxamide] the figure was below 0.05 µM.
`Nc1ncc(-c2cccc(C(=O)NCc3ccc(C(F)(F)F)cc3F)c2)nc1C(=O)N[C@H]1CCCNC1` [compound 1001, 3-amino-6-{3-[({[2-fluoro-4-(trifluoromethyl)phenyl]methyl}amino)carbonyl]phenyl}-N-[(3S)-piperidin-3-yl]pyrazine-2-carboxamide]: the half-maximal inhibitory concentration (IC50) is below 0.05 µM.
Same read-out and setting: with `Nc1ncc(-c2cccc(C(=O)NCc3ccc(F)c(Cl)c3)c2)nc1C(=O)N[C@H]1CCCNC1` [compound 1006, 3-amino-6-[3-({[(3-chloro-4-fluorophenyl)methyl]amino}carbonyl)phenyl]-N-[(3S)-piperidin-3-yl]pyrazine-2-carboxamide] the figure was below 0.05 µM.
